The results in this text go back to patent US6265577A, “Pyrazolopyridylpyridazinone derivatives and process for the preparation thereof” (Kyorin Pharmaceuticals Co., Ltd., priority 1996, dated 2001).

≈ marks a conversion by molar mass, not a printed value.

What all share (type): biochemical
The target of experiment [1] is T1, phosphodiesterase III from respiratory tract (Cavia porcellus, UniProt H0VIU9).
T1 construct: fractions were extracted from respiratory tract and heart of guinea pig; from tissue; host or cells: guinea pig respiratory tract
T1 sequence (H0VIU9 1-1132): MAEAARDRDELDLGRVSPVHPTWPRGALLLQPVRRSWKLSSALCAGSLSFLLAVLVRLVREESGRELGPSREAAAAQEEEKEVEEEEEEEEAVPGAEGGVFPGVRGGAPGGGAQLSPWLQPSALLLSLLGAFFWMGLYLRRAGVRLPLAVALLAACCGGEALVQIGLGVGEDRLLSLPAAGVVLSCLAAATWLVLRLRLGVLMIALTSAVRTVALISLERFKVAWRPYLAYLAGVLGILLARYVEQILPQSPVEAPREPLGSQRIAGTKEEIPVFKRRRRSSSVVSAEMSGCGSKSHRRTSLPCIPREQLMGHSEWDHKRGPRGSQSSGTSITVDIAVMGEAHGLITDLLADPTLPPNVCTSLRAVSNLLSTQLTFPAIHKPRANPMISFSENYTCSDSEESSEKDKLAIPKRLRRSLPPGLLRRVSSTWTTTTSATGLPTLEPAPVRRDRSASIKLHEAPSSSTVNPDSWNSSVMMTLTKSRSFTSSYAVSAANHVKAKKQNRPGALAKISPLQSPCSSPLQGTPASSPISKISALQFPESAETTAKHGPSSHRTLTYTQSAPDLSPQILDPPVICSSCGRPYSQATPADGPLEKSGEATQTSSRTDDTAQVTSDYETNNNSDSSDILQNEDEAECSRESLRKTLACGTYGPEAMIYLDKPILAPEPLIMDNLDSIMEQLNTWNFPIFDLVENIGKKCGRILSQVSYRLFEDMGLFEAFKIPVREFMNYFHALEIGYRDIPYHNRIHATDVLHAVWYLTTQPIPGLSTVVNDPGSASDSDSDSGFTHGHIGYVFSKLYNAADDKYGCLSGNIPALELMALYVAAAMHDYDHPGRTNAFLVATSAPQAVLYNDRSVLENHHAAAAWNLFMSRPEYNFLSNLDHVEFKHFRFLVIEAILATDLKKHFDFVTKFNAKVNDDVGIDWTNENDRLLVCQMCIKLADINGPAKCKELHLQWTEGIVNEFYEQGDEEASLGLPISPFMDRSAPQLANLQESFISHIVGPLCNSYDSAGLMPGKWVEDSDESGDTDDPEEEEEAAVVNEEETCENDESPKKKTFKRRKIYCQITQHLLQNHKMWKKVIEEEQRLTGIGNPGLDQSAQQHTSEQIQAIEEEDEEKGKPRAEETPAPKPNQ
The experiment in a line: Measurement of phosphodiesterase-inhibiting activity, respiratory tract, III. Particulars: guinea pig respiratory tract; 1 μM cAMP or cGMP substrate, 60 minutes at 30° C., EIA. How it is done: (§1) Measurement of phosphodiesterase-inhibiting activity
(§2) Phosphodiestorase-containing fractions were extracted from respiratory tract and heart of guinea pig according to the method of Nicholson et al (Br. J. Pharmacol., 97, 889-897 (1989)), and used as enzyme solutions. The measurement of phosphodiesterase-inhibiting activity was performed by quantitatively determining (Linden et al, J. Immunol. Methods., 151, 209-216 (1992)) the cyclic AMP (cAMP) or cyclic GMP (cGMP) that remains as a result of enzymic reaction (Thompson et al, Biochemistry, 10, 311-316 (1971)) through enzyme immunoassay (EIA).
(§3) This was performed according to the method of Thompson et al. The enzyme solution was placed in a test tube, and 1 μM of cAMP or cGMP was added as a substrate. After reacting for 60 minutes at 30° C., the test tube was dipped for 2 minutes into boiling bath to inactivate phosphodiesterase, thus stopping the reaction. The testing compound was added to the test tube simultaneously with substrate.
(§4) 2) Quantitative determination through EIA […]

In experiment [2] the target is T2, phosphodiesterase II from heart (Cavia porcellus, UniProt A0A286XUV5).
T2 construct: fractions were extracted from respiratory tract and heart of guinea pig; from tissue; host or cells: guinea pig heart
T2 sequence (A0A286XUV5 22-936): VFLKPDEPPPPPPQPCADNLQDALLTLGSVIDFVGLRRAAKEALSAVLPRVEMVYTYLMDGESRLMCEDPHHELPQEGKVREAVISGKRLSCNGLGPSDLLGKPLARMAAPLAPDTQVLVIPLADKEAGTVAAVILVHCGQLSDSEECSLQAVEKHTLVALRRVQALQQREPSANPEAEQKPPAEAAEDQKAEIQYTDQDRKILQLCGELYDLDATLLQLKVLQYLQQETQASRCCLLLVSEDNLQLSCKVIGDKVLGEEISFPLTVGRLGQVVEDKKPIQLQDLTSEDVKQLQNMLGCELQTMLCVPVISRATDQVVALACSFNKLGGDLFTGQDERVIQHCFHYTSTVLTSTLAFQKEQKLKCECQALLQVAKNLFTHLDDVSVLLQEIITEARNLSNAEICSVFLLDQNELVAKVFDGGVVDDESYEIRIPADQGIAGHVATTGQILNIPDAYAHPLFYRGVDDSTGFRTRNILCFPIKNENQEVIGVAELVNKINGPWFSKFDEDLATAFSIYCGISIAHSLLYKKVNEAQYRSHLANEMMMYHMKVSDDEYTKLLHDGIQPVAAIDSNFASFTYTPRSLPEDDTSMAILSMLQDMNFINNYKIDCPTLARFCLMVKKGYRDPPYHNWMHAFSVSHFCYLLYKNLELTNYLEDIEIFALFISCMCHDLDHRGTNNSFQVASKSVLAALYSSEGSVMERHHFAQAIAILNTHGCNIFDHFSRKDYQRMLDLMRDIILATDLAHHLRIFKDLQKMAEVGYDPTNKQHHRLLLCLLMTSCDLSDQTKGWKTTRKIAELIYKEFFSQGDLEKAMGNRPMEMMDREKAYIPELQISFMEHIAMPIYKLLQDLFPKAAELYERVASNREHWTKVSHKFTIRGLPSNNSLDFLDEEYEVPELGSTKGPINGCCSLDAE
The experiment in a line: Measurement of phosphodiesterase-inhibiting activity, heart, II. Particulars: guinea pig heart; 1 μM cAMP or cGMP substrate, 60 minutes at 30° C., EIA. The method, then: as §1, §2, §3, §4

Experiment [3] has as its target T3, phosphodiesterase III from heart (Cavia porcellus, UniProt H0VIU9).
T3 construct: fractions were extracted from respiratory tract and heart of guinea pig; from tissue; host or cells: guinea pig heart
T3 sequence (H0VIU9 1-1132): T1 sequence (H0VIU9 1-1132)
In words: Measurement of phosphodiesterase-inhibiting activity, heart, III. Particulars: guinea pig heart; 1 μM cAMP or cGMP substrate, 60 minutes at 30° C., EIA. The method, then:
as §1, §2, §3, §4

The target of experiment [4] is phosphodiesterase I from heart. The experiment in a line: Measurement of phosphodiesterase-inhibiting activity, heart, I. Particulars: guinea pig heart; 1 μM cAMP or cGMP substrate, 60 minutes at 30° C., EIA. The method, then: as §1, §2, §3, §4
The target of experiment [5] is phosphodiesterase IV from respiratory tract. The experiment in a line: Measurement of phosphodiesterase-inhibiting activity, respiratory tract, IV. Particulars: guinea pig respiratory tract; 1 μM cAMP or cGMP substrate, 60 minutes at 30° C., EIA. How it is done: as §1, §2, §3, §4
The target of experiment [6] is T4, phosphodiesterase II from respiratory tract (Cavia porcellus, UniProt A0A286XUV5).
T4 construct: fractions were extracted from respiratory tract and heart of guinea pig; from tissue; host or cells: guinea pig respiratory tract
T4 sequence (A0A286XUV5 22-936): T2 sequence (A0A286XUV5 22-936)
In words: Measurement of phosphodiesterase-inhibiting activity, respiratory tract, II. Particulars: guinea pig respiratory tract; 1 μM cAMP or cGMP substrate, 60 minutes at 30° C., EIA. How it is done: as §1, §2, §3, §4

Experiment [7] concerns the target T5, phosphodiesterase V from respiratory tract (Cavia porcellus, UniProt H0VD23).
T5 construct: fractions were extracted from respiratory tract and heart of guinea pig; from tissue; host or cells: guinea pig respiratory tract
In words: Measurement of phosphodiesterase-inhibiting activity, respiratory tract, V. To be noted: guinea pig respiratory tract; 1 μM cAMP or cGMP substrate, 60 minutes at 30° C., EIA. The method, then:
as §1, §2, §3, §4

`CC1CC(=O)NN=C1c1c(C(C)C)nn2ccccc12` (stereo not shown) [Example 36]: the IC50 (in general, the midpoint of a concentration-inhibition curve) was 14.8 µM in experiment [1]; > 111 µM in experiment [2]; 18.5 µM in experiment [3]; > 111 µM in experiment [6]; 0.37 µM in experiment [7]. In addition, the “IC50 Heart I” value in experiment [4] is > 30 mg/L. For the same compound, the “IC50 Respiratory tract IV” value in experiment [5] stood at 5 mg/L (≈ 18.5 µM).
